Active and inactive are the calls of the source.
Columns and labels:
[1] = molecular target: Voltage-dependent T-type calcium channel subunit alpha-1H (Homo sapiens, UniProt O95180); format: functional;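 further: channel activity triggered by adding a high calcium stimulation buffer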
cells [2] = format: functional
cells [3] = format: functional, cell-based
[4] = Vero E6 cell cytotoxicity, dose response, cytotoxicity control for non-replicating M. tuberculosis project, secondary assay (AID 492998); format: functional, VeroE6; conditions: Vero C1008
[5] = microbe, parasite or virus in culture; format: functional; conditions: Mycobacterium tuberculosis
[6] = inhibitors of intracellular T. cruzi replication, confirmation, NIH3T3 host cells, beta-gal luminescence (AID 2044); format: functional, cell-based;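 further: intracellular parasites grown in NIH/3T3 mouse fibroblasts as host cells; luminescent beta-galactosidase reporter signal from transgenic T. cruzi replicating inside host cells; inhibitors lower the luminescence signal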
[7] = cytotoxicity toward NIH3T3 fibroblasts, dose response, counter-screen, cell-based, ATP luminescence, mouse fibroblasts (AID 2010); format: functional;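 further: cells exposed to compound for about 90 hours before reading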
INS1 = experiment: beta cell apoptosis inhibitors, cytokine rescue, dose response, luminescence, retest (AID 449756); format: functional, cell-based; conditions: Rattus norvegicus;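 further: cell death triggered by IL-1 beta plus TNF-alpha plus IFN-gamma mixture; protective hits raise ATP signal compared with cytokine alone wells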
cells [8] = format: functional, cell-based; remark: listed apart in the source
[9] = THP-1 cell cytotoxicity, dose response, cytotoxicity control for non-replicating M. tuberculosis project (AID 489025); format: functional
[10] = molecular target: T1, DNA repair protein RAD52 homolog (Homo sapiens, UniProt P43351); format: functional, biochemical
T1 sequence (P43351 whole entry): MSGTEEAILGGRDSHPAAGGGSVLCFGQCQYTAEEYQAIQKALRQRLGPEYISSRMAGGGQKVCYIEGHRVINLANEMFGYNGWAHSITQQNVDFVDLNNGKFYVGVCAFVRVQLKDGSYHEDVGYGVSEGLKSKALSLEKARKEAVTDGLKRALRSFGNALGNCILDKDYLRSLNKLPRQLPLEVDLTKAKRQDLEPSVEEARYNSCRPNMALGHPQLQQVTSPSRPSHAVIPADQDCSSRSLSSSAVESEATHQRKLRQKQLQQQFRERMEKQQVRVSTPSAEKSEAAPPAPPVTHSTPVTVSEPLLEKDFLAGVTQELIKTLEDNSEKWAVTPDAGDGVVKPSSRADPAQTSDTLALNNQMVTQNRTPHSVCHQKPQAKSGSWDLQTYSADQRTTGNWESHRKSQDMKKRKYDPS

[11] = growth suppression of beta-catenin-knockout colon cells, dose response, cell-based, HCT116, human colon tumor (AID 1045); format: functional;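 further: HCT116 colon tumor cells with beta catenin knocked out; cells exposed to compound for 60 hours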
[12] = growth suppression of PTEN-null colon cells, dose response, cell-based, HCT116 PTEN knockout (AID 1047); format: functional;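 further: HCT116 colon tumor cells with PTEN knocked out; cells exposed to compound for 60 hours before readout; potency for loss of cell viability measured by luminescence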
[13] = molecular target: T2, Polyadenylate-binding protein 1 (Homo sapiens, UniProt P11940); experiment: PABP1 MLLE–PAM2 interaction inhibitors, dose response, miRNA deadenylation inhibitor project, biochemical, fluorescence polarization, Cy5-PAM2 peptide, secondary (AID 602260); format: functional; conditions: read-out: IC50_Mean
[14] = molecular target: T2, Polyadenylate-binding protein 1; experiment: PABP1 MLLE–PAM2 binding inhibitor potency, dose response, biochemical, fluorescence polarization, FITC-PAM2 peptide (AID 602259); format: functional; conditions: read-out: IC50_Mean
[15] = molecular target: FAD-linked sulfhydryl oxidase ALR (Homo sapiens, UniProt P55789); experiment: inhibitors of human ALR sulfhydryl oxidase, dose response, biochemical, H2O2 detection, luminescence, cherry-pick (AID 493248)
Large T antigen = Large T antigen (Simian virus 40, UniProt P03070); format: functional, Betapolyomavirus macacae;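 further: Confirmatory-stage PubChem screen for compounds that inhibit SV40 T antigen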
[16] = HepG2 cell cytotoxicity, dose response, cytotoxicity control for Shn3 inhibitor project, CellTiter-Glo, cherry-picked (AID 624134); format: functional, cell-based
[17] = control 3'UTR Renilla luciferase suppression, dose response, counter-screen for Shn3 inhibitor project, cell-based, Clone20-Shn3RL, cherry-picked (AID 624133); format: functional
[18] = Shn3 3'UTR reporter inhibitors, dose response, cell-based, Clone20 osteoblasts, firefly luciferase, cherry-picked (AID 624132); format: functional;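 further: firefly luciferase luminescence from reporter carrying the Shn3 3'UTR in osteoblasts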
[19] = inhibitors of firefly luciferase expression or activity, dose response, H4 neuroglioma cells, luminescence (AID 1990); format: functional, cell-based
[20] = NIH-3T3 fibroblast cytotoxicity, dose response, cytotoxicity control, cell-based, fluorescence, Alamar Blue, secondary assay (AID 2327); format: functional;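 further: NIH-3T3 mouse fibroblasts cultured with fluconazole at 8 µg/mL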
[21] = inhibitors of SNCA 5'UTR-driven reporter translation, confirmation, H4 neuroglioma cells, luminescence (AID 1988); format: functional, cell-based
[22] = Luminescence Cell-Based Dose Response HTS to Identify Inhibitors of 5'UTR Stem-Loop Driven Prion Protein mRNA Translation in H4 Neuroglioblastoma Cells. [Related pubchem assays: 1827 (Project Summary), 1813 (Primary HTS)]; format: functional
[23] = C. albicans growth with fluconazole, confirmation, fluorescence, retest (AID 2467); format: functional, cell-based
[24] = THP-1 cell cytotoxicity, dose response, cytotoxicity control for Vif-APOBEC3G degradation inhibitor project, THP-1 cells (AID 1117359); format: functional; conditions: Human immunodeficiency virus 1, THP-1
Cytochrome P450 3A4 = Cytochrome P450 3A4 (Homo sapiens, UniProt P08684); conditions: Potency;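 further: confirmatory qHTS run detecting inhibitors and substrates of CYP3A4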
[25] = Luminescence Cell-Based Dose Retest to Confirm Inhibitors of Cancer Stem Cells. [Related pubchem assays (depositor defined):AID2717, AID2721]; format: functional; conditions: Homo sapiens
[26] = cytotoxicity in HEK-293T cells, dose response, cytotoxicity control for TCR NF-kB inhibitor project, luminescence, T-cell screen hits (AID 489026); format: functional, cell-based;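 further: cells exposed to compound about 14 hours before the viability readout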

Chain of Large T antigen (P03070 whole entry): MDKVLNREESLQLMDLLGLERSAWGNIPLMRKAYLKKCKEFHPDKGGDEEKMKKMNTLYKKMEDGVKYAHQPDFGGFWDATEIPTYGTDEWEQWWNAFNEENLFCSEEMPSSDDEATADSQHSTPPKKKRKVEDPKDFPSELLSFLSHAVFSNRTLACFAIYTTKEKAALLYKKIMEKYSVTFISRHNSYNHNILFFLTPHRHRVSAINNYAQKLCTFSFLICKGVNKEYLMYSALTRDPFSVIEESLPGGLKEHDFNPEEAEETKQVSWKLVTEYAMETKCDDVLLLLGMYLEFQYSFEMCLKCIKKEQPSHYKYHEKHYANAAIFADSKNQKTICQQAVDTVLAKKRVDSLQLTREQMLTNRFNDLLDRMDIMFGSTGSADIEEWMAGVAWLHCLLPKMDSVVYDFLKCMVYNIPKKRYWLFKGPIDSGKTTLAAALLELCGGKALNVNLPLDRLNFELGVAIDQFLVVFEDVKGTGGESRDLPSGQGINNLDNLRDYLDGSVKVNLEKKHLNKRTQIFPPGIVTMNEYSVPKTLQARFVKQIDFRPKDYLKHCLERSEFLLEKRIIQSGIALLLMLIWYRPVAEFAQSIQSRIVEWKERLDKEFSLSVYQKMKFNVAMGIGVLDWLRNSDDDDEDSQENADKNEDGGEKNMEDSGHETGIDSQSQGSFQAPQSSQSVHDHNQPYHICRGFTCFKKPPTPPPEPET
Chain of Voltage-dependent T-type calcium channel subunit alpha-1H (O95180 whole entry): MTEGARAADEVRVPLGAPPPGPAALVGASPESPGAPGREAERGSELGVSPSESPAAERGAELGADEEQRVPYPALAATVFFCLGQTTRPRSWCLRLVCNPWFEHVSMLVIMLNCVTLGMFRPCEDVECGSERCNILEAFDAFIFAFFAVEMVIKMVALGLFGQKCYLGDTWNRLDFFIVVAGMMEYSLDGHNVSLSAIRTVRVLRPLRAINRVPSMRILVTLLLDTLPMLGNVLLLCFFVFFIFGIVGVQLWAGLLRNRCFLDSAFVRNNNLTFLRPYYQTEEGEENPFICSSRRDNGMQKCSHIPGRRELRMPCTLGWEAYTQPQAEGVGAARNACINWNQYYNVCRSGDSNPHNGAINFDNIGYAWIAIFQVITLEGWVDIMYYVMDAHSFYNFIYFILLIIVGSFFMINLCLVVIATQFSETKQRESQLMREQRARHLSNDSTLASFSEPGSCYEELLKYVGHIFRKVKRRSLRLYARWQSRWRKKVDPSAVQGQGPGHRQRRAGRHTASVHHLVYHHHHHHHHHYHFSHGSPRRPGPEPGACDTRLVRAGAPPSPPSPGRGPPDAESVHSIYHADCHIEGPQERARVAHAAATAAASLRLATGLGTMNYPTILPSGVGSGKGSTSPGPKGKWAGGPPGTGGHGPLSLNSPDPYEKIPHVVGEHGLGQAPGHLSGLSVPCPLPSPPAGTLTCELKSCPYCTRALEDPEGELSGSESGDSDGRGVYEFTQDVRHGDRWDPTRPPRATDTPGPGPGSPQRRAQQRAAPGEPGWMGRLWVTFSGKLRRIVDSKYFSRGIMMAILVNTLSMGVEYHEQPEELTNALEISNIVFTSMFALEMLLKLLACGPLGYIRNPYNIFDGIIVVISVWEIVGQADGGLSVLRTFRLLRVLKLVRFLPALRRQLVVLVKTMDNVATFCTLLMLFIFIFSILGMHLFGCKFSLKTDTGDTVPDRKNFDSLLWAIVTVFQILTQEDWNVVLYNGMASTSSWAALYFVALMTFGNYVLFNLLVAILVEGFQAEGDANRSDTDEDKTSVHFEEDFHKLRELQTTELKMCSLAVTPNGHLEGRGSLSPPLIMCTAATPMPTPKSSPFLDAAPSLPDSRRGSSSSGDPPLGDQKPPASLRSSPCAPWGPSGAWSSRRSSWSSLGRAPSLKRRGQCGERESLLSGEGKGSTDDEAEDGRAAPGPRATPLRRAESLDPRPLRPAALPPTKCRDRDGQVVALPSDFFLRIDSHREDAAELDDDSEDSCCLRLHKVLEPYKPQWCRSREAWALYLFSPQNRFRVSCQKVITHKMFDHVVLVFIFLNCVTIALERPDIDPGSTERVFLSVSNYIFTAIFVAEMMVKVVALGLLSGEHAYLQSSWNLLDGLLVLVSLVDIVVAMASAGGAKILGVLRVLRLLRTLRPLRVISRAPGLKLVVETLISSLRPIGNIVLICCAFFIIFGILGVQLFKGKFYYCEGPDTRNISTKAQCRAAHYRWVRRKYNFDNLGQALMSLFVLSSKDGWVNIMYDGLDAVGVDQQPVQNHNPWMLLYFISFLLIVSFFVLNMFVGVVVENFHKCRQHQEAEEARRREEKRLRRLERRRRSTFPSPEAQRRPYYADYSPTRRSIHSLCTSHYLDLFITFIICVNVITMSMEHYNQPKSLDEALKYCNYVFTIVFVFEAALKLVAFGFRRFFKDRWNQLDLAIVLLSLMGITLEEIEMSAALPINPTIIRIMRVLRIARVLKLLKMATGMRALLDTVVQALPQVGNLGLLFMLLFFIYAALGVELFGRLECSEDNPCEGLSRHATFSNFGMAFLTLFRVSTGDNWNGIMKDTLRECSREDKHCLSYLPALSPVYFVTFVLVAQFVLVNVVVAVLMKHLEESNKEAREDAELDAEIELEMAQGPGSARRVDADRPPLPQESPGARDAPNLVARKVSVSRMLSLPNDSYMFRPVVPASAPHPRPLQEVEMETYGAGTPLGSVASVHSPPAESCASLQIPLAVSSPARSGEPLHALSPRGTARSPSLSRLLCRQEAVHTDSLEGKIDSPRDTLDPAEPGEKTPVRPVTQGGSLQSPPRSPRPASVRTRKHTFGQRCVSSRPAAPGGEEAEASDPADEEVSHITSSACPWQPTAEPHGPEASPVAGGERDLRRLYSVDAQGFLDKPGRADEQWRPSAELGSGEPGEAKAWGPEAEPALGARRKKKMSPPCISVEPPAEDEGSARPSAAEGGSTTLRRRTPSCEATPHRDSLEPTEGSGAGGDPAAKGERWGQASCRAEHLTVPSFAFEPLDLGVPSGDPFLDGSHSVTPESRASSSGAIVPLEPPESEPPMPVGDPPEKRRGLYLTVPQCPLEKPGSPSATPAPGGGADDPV
T2 sequence (P11940 whole entry): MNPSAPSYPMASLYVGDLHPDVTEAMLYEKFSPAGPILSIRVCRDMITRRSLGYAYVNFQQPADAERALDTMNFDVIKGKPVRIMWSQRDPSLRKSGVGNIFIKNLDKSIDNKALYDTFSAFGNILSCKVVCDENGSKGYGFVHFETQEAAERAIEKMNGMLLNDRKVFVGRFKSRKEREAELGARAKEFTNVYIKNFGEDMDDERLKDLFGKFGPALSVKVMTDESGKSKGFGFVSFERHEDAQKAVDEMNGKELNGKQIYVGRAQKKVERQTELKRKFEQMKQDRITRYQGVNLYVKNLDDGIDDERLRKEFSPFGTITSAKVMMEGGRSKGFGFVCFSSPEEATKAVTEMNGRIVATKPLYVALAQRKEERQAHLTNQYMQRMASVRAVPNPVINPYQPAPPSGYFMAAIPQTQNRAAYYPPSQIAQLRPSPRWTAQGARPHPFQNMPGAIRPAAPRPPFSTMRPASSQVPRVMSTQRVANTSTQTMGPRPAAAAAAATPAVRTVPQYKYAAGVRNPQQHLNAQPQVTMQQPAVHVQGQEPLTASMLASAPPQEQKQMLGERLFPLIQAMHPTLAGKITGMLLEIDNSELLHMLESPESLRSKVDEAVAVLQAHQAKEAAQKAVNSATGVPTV
Chain of FAD-linked sulfhydryl oxidase ALR (P55789 whole entry): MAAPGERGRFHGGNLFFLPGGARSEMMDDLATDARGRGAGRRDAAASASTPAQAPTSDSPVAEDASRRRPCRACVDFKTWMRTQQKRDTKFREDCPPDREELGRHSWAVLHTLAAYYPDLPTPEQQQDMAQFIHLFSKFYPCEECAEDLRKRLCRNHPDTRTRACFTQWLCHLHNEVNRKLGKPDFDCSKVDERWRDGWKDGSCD
Chain of Cytochrome P450 3A4 (P08684 whole entry): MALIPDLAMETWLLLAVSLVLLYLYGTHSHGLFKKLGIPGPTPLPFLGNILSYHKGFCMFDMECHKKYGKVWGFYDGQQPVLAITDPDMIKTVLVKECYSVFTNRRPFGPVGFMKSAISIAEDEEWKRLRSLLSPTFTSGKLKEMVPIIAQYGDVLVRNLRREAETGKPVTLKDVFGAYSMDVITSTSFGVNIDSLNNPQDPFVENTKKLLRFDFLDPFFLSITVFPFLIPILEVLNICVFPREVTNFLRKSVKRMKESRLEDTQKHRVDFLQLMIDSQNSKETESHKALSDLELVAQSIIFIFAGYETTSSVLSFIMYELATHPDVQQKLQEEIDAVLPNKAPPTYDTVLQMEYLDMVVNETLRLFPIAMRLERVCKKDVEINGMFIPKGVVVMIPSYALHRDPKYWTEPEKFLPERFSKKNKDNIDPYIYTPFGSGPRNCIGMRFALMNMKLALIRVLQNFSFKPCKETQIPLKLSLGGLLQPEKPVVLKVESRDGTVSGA

Question: For `O=C1c2ccccc2C(Nc2cccc(C(F)(F)F)c2)N1Cc1ccco1` (centres undefined), which EC50 [1] is on record?
Answer: 3.9 µM (active)

Question: Which results are given for `c1ccc(CSc2ccc(-c3ccccn3)nn2)cc1`?
Answer: IC50 (cells [2]): 15.1 µM (active); EC50 (cells [3]): 85.6 µM (active); CC50 [4]: 12 µM (active); CC50 [5]: 36.9 µM (active); EC50 [6]: 1.99 µM (active); EC50 [7]: > 30 µM (not active); AC50 (INS1): 5.5 µM (active); EC50 (cells [8]): 28.4 µM (active); CC50 [9]: 14.2 µM (active)

Question: For `COc1ccc(S(=O)(=O)N2CCOC2CNC(=O)C(=O)NCCc2c[nH]c3ccccc23)cc1C` (centres undefined), which EC50 [1] is on record?
Answer: 3.31 µM (active)

Question: With `CC(C)NC(C(=O)Nc1cc(Cl)cc(Cl)c1)c1ccccc1` (centres undefined) as the molecule, how does the EC50 [1] read?
Answer: 3.62 µM (active)

Question: Which AC50 [10] does the source give for `CN(C)CCCN(C(=O)c1ccc2c(c1)CCCC2)c1nc2c(F)cccc2s1` here?
Answer: 35.2 µM (active)

Question: What about the EC50 [11] of the same molecule?
Answer: 30 µM (active)

Question: And the EC50 [6]?
Answer: 0.164 µM (active)

Question: What about the EC50 [7] of the same molecule?
Answer: > 60 µM (not active)

Question: And the EC50 [12]?
Answer: 27 µM (active)

Question: With `O=C(CCNc1ccc(F)cc1)c1ccco1` as the molecule, how does the IC50 (cells [2]) read?
Answer: 13.6 µM (active)

Question: And the CC50 [4]?
Answer: 17.9 µM (active)

Question: And the CC50 [9]?
Answer: > 40 µM (active)

Question: For `COc1ccccc1OCC(=O)NCCNC(=O)COc1ccccc1OC`, which IC50 [13] is on record?
Answer: > 66 µM (inactive)

Question: What about the IC50 [14] of the same molecule?
Answer: > 66 µM (inactive)

Question: What does the source list for `Oc1ccc(-c2cn3ccccc3n2)cc1`?
Answer: AC50 [15]: 0.097 µM (active); IC50 (Large T antigen): > 100 µM (active)

Question: Which AC50 [16] does the source give for `CC1CCN(c2ccccc2NC(=S)NC(=O)c2ccc(-c3cccc([N+](=O)[O-])c3)o2)CC1` here?
Answer: > 70 µM (inactive)

Question: And the AC50 [17]?
Answer: 3.38 µM (active)

Question: What about the AC50 [18] of the same molecule?
Answer: 3.07 µM (active)

Question: What about the IC50 [13] of the same molecule?
Answer: > 66 µM (inactive)

Question: And the IC50 [14]?
Answer: > 66 µM (inactive)

Question: Which AC50 [10] does the source give for `COc1ccc(-c2nc(CN3CCN(c4cc(C)nc(C)c4)CC3)c(C)o2)c2ccccc12` here?
Answer: 7 µM (active)

Question: And the EC50 [19]?
Answer: 20.9 µM (active)

Question: And the CC50 [5]?
Answer: 11.5 µM (active)

Question: And the EC50 [20]?
Answer: > 160 µM (inactive)

Question: And the EC50 [21]?
Answer: 10.7 µM (active)

Question: What about the EC50 [22] of the same molecule?
Answer: > 120 µM (not active)

Question: And the EC50 [23]?
Answer: 3.22 µM (active)

Question: What does the source list for `COc1ccc(NC(=O)CSc2ccccc2)cn1`?
Answer: IC50 [13]: 33.4 µM (inactive); IC50 [14]: 41.7 µM (inactive)

Question: Which results are given for `CCOc1ccc(C(=O)CCN2CCCCCC2)cc1`?
Answer: IC50 (cells [2]): 17.2 µM (active); CC50 [4]: > 20 µM (active); CC50 [5]: > 40 µM (active); CC50 [9]: > 40 µM (active)

Question: With `COc1ccccc1CNCC(=O)Nc1ccc(N2CCOCC2)cc1` as the molecule, how does the CC50 [24] read?
Answer: 30.7 µM (active)

Question: With `O=C(CCc1ccc(O)c(O)c1)NN=C(S)Nc1ccc(Br)cc1Cl` as the molecule, how does the IC50 (Large T antigen) read?
Answer: > 100 µM (active)

Question: Which EC50 [1] does the source give for `O=C(Nc1ccccc1-c1ccccc1)c1ccc(Br)o1` here?
Answer: 7.47 µM (active)

Question: For `CCCn1c(C)nc2c(NC3CCN(Cc4ccccc4)C3)nc(C)nc21` (centres undefined), which AC50 (Cytochrome P450 3A4) is on record?
Answer: 15.8 µM (inconclusive)

Question: With `O=C(COc1cccc(C(F)(F)F)c1)N1CCN(c2ccc(O)cc2)CC1` as the molecule, how does the AC50 [25] read?
Answer: 7.3 µM (active)

Question: And the IC50 (Large T antigen)?
Answer: 9.68 µM (active)

Question: With `NC(=O)OCCSc1nnc(-c2cccc(C(N)=S)c2)o1` as the molecule, how does the IC50 [13] read?
Answer: > 66 µM (inactive)

Question: And the IC50 [14]?
Answer: > 66 µM (inactive)

Question: With `Clc1ccc(CSc2nncn2-c2ccc3c(c2)OCCO3)cc1` as the molecule, how does the IC50 [26] read?
Answer: > 80 µM (inactive)

Question: What about the EC50 [19] of the same molecule?
Answer: > 120 µM (not active)

Question: What about the EC50 [21] of the same molecule?
Answer: > 120 µM (not active)

Question: What about the EC50 [22] of the same molecule?
Answer: > 120 µM (not active)
